Test results as given in ChEMBL document CHEMBL1155182, “Diphenylmethylene hydroxamic acids as selective class IIa histone deacetylase inhibitors” (Bioorg Med Chem Lett, 2009).

Columns and labels:
Histone deacetylase 4 = Histone deacetylase 4 (Homo sapiens, UniProt P56524)
Description: Inhibition of human recombinant N-terminal FLAG-tagged HDAC4 (612-1034) expressed in baculovirus after 10 mins by fluorimetric analysis

Histone deacetylase 5 = Histone deacetylase 5 (Homo sapiens, UniProt Q9UQL6)
Description: Inhibition of human recombinant N-terminal FLAG-tagged HDAC5 (620-1122) expressed in baculovirus after 10 mins by fluorimetric analysis

Histone deacetylase 7 = molecular target: T1, Histone deacetylase 7 (Homo sapiens, UniProt Q8WUI4)
T1 sequence (Q8WUI4 whole entry): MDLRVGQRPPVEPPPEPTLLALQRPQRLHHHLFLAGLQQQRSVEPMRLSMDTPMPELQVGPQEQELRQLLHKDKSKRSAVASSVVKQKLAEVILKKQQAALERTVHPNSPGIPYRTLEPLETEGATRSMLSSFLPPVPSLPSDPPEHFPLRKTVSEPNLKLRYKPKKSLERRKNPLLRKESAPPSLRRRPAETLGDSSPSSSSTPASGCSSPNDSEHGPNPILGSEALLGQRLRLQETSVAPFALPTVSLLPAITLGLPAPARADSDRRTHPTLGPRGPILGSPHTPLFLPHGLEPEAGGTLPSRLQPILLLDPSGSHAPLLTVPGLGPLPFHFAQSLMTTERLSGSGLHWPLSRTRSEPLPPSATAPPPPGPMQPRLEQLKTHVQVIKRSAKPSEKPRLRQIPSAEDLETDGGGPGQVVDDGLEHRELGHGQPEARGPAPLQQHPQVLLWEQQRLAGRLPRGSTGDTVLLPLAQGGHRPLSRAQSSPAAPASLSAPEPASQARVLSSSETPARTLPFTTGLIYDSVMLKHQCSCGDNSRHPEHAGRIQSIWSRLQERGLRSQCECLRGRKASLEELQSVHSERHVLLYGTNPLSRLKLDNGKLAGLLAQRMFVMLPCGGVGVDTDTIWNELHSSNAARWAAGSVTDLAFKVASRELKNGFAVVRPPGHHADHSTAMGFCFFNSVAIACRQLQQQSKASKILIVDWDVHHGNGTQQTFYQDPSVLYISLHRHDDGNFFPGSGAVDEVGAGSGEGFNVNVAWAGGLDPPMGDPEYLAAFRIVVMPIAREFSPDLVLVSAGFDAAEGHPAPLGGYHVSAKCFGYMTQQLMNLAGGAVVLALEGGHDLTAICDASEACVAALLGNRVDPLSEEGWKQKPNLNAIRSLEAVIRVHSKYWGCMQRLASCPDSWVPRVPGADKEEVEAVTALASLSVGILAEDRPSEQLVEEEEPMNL
Description: Inhibition of human recombinant N-terminal FLAG-tagged HDAC7 (438-915) expressed in baculovirus after 10 mins by fluorimetric analysis

Histone deacetylase [1] = conditions: hek-293t
Description: Inhibition of class 1 HDAC in HEK293T cells after 16 hrs by whole cell assay

Histone deacetylase [2] = conditions: hek-293t; remark: listed apart in the source
Description: Inhibition of class 2a HDAC in HEK293T cells after 16 hrs by whole cell assay

Histone deacetylase 5, sequence (Q9UQL6 whole entry): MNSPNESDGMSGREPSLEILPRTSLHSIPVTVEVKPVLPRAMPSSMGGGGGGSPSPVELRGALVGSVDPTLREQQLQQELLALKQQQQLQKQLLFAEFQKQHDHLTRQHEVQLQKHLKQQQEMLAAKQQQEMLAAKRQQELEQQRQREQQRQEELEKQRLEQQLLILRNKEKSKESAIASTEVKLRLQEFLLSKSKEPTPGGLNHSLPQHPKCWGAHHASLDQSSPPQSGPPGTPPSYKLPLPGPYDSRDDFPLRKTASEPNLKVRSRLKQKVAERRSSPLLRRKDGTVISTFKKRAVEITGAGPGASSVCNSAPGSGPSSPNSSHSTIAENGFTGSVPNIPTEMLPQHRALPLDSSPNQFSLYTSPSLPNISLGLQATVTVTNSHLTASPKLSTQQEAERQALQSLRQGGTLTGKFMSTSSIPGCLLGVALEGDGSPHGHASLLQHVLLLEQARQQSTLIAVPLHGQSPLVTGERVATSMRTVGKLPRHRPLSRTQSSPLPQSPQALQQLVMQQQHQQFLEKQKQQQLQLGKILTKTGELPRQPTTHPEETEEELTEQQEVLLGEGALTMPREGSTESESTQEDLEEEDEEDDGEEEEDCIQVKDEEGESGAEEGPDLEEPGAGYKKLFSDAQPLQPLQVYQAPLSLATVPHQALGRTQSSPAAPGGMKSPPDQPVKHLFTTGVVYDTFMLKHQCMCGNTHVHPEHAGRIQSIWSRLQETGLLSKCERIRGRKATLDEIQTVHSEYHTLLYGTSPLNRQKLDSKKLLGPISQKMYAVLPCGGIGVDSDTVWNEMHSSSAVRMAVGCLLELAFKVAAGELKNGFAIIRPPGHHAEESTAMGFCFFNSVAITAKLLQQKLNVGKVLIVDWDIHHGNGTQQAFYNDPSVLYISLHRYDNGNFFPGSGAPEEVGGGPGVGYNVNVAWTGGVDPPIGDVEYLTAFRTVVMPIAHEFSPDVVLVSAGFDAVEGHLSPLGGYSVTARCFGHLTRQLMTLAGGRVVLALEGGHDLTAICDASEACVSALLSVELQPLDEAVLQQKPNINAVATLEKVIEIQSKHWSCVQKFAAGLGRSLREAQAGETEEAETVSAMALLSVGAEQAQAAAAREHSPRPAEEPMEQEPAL
Histone deacetylase 4, sequence (P56524 whole entry): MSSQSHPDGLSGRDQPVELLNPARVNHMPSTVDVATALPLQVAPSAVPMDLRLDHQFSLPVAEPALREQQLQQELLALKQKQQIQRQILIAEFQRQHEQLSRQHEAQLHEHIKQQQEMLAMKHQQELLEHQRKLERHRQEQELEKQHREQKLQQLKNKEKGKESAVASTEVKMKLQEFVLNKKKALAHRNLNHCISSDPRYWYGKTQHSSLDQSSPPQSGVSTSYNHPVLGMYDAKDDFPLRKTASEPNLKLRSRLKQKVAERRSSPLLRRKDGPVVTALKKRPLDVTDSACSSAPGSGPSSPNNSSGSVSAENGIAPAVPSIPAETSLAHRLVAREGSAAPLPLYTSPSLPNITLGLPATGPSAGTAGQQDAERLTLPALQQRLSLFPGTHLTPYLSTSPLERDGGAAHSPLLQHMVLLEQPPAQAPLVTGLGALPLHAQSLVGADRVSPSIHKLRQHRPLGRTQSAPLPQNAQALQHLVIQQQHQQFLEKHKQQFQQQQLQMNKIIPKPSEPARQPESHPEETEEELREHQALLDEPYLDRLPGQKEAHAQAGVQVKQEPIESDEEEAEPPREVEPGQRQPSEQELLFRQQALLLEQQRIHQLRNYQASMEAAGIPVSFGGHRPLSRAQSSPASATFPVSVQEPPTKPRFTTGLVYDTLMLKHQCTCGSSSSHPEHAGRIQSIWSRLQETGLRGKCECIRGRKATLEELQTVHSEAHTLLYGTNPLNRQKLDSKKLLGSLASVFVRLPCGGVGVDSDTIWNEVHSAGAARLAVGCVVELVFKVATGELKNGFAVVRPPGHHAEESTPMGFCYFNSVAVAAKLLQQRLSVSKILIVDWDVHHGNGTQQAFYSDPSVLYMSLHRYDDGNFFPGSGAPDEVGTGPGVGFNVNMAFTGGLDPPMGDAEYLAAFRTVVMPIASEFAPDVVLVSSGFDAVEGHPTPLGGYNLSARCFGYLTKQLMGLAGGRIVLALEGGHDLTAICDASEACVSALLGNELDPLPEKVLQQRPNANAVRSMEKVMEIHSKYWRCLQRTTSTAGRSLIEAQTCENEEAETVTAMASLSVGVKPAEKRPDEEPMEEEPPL

| Structure (SMILES) | IC50 (Histone deacetylase 4) [nM] | IC50 (Histone deacetylase 5) [nM] | IC50 (Histone deacetylase 7) [nM] | IC50 (Histone deacetylase [1]) [nM] | IC50 (Histone deacetylase [2]) [nM] |
| --- | --- | --- | --- | --- | --- |
| O=C(NO)C(Cc1ccccc1)c1ccccc1 (stereo not drawn) | > 10000 | > 10000 | > 10000 | – | – |
| O=C(CC(c1ccccc1)c1ccccc1)NO | > 10000 | > 10000 | > 10000 | – | – |
| CC(C(=O)NO)c1ccccc1 (stereo not drawn) | > 10000 | > 10000 | > 10000 | – | – |
| O=C(NO)C1c2ccccc2Cc2ccccc21 | 2320 | 1460 | – | – | – |
| CC(C(=O)NO)(c1ccccc1)c1ccccc1 | 4500 | 1200 | 4800 | > 50000 | 16000 |
| CN1c2ccccc2C(C(=O)NO)c2ccccc21 | 1910 | 470 | – | – | – |

Next, values leading:

| IC50 (Histone deacetylase 4) [nM] | IC50 (Histone deacetylase 5) [nM] | IC50 (Histone deacetylase 7) [nM] | IC50 (Histone deacetylase [1]) [nM] | IC50 (Histone deacetylase [2]) [nM] | Structure (SMILES) |
| --- | --- | --- | --- | --- | --- |
| 210 | 110 | 110 | > 50000 | 900 | O=C(NO)C(c1ccc2c(c1)CCO2)c1ccc2c(c1)CCO2 |
| 700 | 90 | – | – | – | O=C(NO)C(c1cccc(F)c1)c1cccc(F)c1 |
| > 10000 | > 10000 | > 10000 | > 50000 | > 50000 | CS(=O)(=O)Nc1ccc(C(C(=O)NO)c2ccc(NS(C)(=O)=O)cc2)cc1 |
| 1100 | 280 | 1760 | > 50000 | 3500 | O=C(NO)C(c1ccc(F)cc1)c1ccc(F)cc1 |
| 960 | 210 | 1400 | – | – | O=C(NO)C(c1ccc(Cl)cc1)c1ccc(Cl)cc1 |
